Source: ChEMBL document CHEMBL3272295, “Drugs derived from cannabinoids. 5. delta6a,10a-Tetrahydrocannabinol and heterocyclic analogs containing aromatic side chains” (J Med Chem, 1976)

Experiments:
Rattus norvegicus [1] = test: Antianxiety activity in Long-Evans rat assessed as reduction in motor activity at 5 mg/kg, po after 2 hrs relative to vehicle-treated control; assay type: functional; set-up: scale not given: the % may be the effect or the level left
Rattus norvegicus [2] = test: Antihypertensive activity in spontaneously hypertensive rat model assessed as reduction in blood pressure at 1 mg/kg, po after 24 hrs; assay type: functional; set-up: scale not given: the % may be the effect or the level left
Rattus norvegicus [3] = test: Antihypertensive activity in spontaneously hypertensive rat model assessed as reduction in blood pressure at 0.3 mg/kg, po after 3 hrs; assay type: functional; set-up: scale not given: the % may be the effect or the level left
Rattus norvegicus [4] = test: Antipsychotic activity in rat assessed as reduction of methamphetamine-induced hyperactivity at 0.5 mg/kg, po administered prior to methamphetamine challenge relative to vehicle-treated control; assay type: functional; set-up: scale not given: the % may be the effect or the level left
Rattus norvegicus [5] = test: Antipsychotic activity in rat assessed as reduction of methamphetamine-induced hyperactivity at 2 mg/kg, po administered prior to methamphetamine challenge relative to vehicle-treated control; assay type: functional; set-up: scale not given: the % may be the effect or the level left
Rattus norvegicus [6] = test: Antipsychotic activity in rat assessed as reduction of methamphetamine-induced hyperactivity at 5 mg/kg, po administered prior to methamphetamine challenge relative to vehicle-treated control; assay type: functional; set-up: scale not given: the % may be the effect or the level left
Rattus norvegicus [7] = test: (§1) Antidiarrheal activity in Charles River rat assessed as inhibition of castor oil-induced diarrhea by measuring protected animals at 0.2 mg/kg, po administered 1 hr prior to castor oil challenge measured after 1 hr relative to vehicle-treated control; assay type: functional
Rattus norvegicus [8] = test: Antisecretory activity in Sprague-Dawley rat assessed as decrease in volume at 50 mg/kg, po administered 30 mins prior to pylorus ligation measured after 4 hrs relative to control; assay type: functional; set-up: scale not given: the % may be the effect or the level left
Rattus norvegicus [9] = test: Antisecretory activity in Sprague-Dawley rat assessed as decrease in acidity at 50 mg/kg, po administered 30 mins prior to pylorus ligation measured after 4 hrs relative to control; assay type: functional; set-up: scale not given: the % may be the effect or the level left
Rattus norvegicus [10] = test: Antisecretory activity in Sprague-Dawley rat assessed as decrease in pepsin output at 50 mg/kg, po administered 30 mins prior to pylorus ligation measured after 4 hrs relative to control; assay type: functional; set-up: scale not given: the % may be the effect or the level left
Mus musculus [11] = test: Antianxiety activity in albino BALB/cJ mouse assessed as reduction in footshock-induced fighting behavior at 5 mg/kg, po after 30 to 90 mins; assay type: functional; set-up: scale not given: the % may be the effect or the level left
[12] = Acute toxicity in po dosed mouse; assay type: organism-based; conditions: in vivo
Rattus norvegicus [13] = test: as §1, with “0.5” for “0.2”, “po administered for 5 days followed by 0.5 mg/kg, po on test day” for “po”; assay type: functional
Rattus norvegicus [14] = test: as §1, with “0.5” for “0.2”, “po administered for 2 days followed by 0.5 mg/kg, po on test day” for “po”; assay type: functional
Rattus norvegicus [15] = test: as §1, with “0.5” for “0.2”, “po administered for 2 days followed by 1 mg/kg, po on test day” for “po”; assay type: functional
Canis familiaris = test: Antianxiety activity in po dosed dog assessed as ataxia administered as single dose measured up to 24 hrs; assay type: functional; conditions: Canis lupus familiaris, read-out: MED
Rattus norvegicus [16] = test: Antidiarrheal activity in Charles River rat assessed as inhibition of castor oil-induced diarrhea by measuring protected animals at 0.05 mg/kg, po administered 1 hr prior to castor oil challenge measured after 1 hr relative to vehicle-treated control; assay type: functional
Rattus norvegicus [17] = test: Antihypertensive activity in spontaneously hypertensive rat model assessed as reduction in blood pressure at 0.3 mg/kg, po after 24 hrs; assay type: functional; set-up: scale not given: the % may be the effect or the level left
Rattus norvegicus [18] = test: Antidiarrheal activity in Charles River rat assessed as inhibition of castor oil-induced diarrhea by measuring protected animals at 0.1 mg/kg, po administered 1 hr prior to castor oil challenge measured after 1 hr relative to vehicle-treated control; assay type: functional
Rattus norvegicus [19] = test: Antisecretory activity in Sprague-Dawley rat assessed as decrease in acid output at 50 mg/kg, po administered 30 mins prior to pylorus ligation measured after 4 hrs relative to control; assay type: functional; set-up: scale not given: the % may be the effect or the level left
Rattus norvegicus [20] = test: Antisecretory activity in Sprague-Dawley rat assessed as decrease in pepsin concentration at 50 mg/kg, po administered 30 mins prior to pylorus ligation measured after 4 hrs relative to control; assay type: functional; set-up: scale not given: the % may be the effect or the level left
Rattus norvegicus [21] = test: Antihypertensive activity in spontaneously hypertensive rat model assessed as reduction in blood pressure at 1 mg/kg, po after 3 hrs; assay type: functional; set-up: scale not given: the % may be the effect or the level left
Mus musculus [22] = test: Analgesic activity in po dosed mouse assessed as inhibition of acetic acid-induced writhing administered 30 mins prior to acetic acid challenge measured after 5 mins for 20 mins; assay type: functional
Felis catus [23] = test: Hypnotic activity in cat assessed as increase in non-REM sleep time at 0.5 mg/kg administered orally through diet measured for 12 hrs by EEG analysis; assay type: functional; conditions: route oral
Rattus norvegicus [24] = test: Antipsychotic activity in rat assessed as reduction of methamphetamine-induced hyperactivity at 2.5 mg/kg, po administered prior to methamphetamine challenge relative to vehicle-treated control; assay type: functional; set-up: scale not given: the % may be the effect or the level left
Rattus norvegicus [25] = test: Antidiarrheal activity in Charles River rat assessed as inhibition of castor oil-induced diarrhea by measuring protected animals at 0.4 mg/kg, po administered 1 hr prior to castor oil challenge measured after 1 hr relative to vehicle-treated control; assay type: functional
Rhesus monkey = test: Antianxiety activity in po dosed rhesus monkey assessed as antiagressive behavior measured every hour post dosing; assay type: functional; conditions: Macaca mulatta, read-out: MED
Rattus norvegicus [26] = test: Antihypertensive activity in spontaneously hypertensive rat model assessed as reduction in blood pressure at 5 mg/kg, po after 3 hrs; assay type: functional; set-up: scale not given: the % may be the effect or the level left
Felis catus [27] = test: Hypnotic activity in cat assessed as increase in total sleep time at 0.5 mg/kg administered orally through diet measured for 12 hrs by EEG analysis; assay type: functional; conditions: route oral
Rattus norvegicus [28] = test: Antianxiety activity in Long-Evans rat assessed as reduction in motor activity at 1 mg/kg, po after 2 hrs relative to vehicle-treated control; assay type: functional; set-up: scale not given: the % may be the effect or the level left
Rattus norvegicus [29] = test: Antihypertensive activity in spontaneously hypertensive rat model assessed as reduction in blood pressure at 5 mg/kg, po after 24 hrs; assay type: functional; set-up: scale not given: the % may be the effect or the level left
Rattus norvegicus [30] = test: Antianxiety activity in Long-Evans rat assessed as reduction in motor activity at 10 mg/kg, po after 2 hrs relative to vehicle-treated control; assay type: functional; set-up: scale not given: the % may be the effect or the level left
Rattus norvegicus [31] = test: Analgesic activity in po dosed Sprague-Dawley rat after 15 to 90 mins by tail flick test; assay type: functional
Rattus norvegicus [32] = test: Antidiarrheal activity in Charles River rat assessed as inhibition of castor oil-induced diarrhea by measuring protected animals at 0.8 mg/kg, po administered 1 hr prior to castor oil challenge measured after 1 hr relative to vehicle-treated control; assay type: functional
Mus musculus [33] = test: Antianxiety activity in albino BALB/cJ mouse assessed as reduction in footshock-induced fighting behavior at 10 mg/kg, po after 30 to 90 mins; assay type: functional; set-up: scale not given: the % may be the effect or the level left

`CC1CCC2=C(C1)c1c(O)cc(C(C)C(C)CCc3ccc(F)cc3)cc1OC2(C)C` (stereo unspecified) gave an Activity (Rattus norvegicus [1]) of 66%, an Activity (Rattus norvegicus [2]) of 12% and an Activity (Rattus norvegicus [3]) of 13%. For the same compound, the Activity (Rattus norvegicus [4]) was 58%, the Activity (Rattus norvegicus [5]) was 62% and the Activity (Rattus norvegicus [6]) was 89%. For the same compound, the inhibition in vivo at 0.2 mg/kg (Rattus norvegicus [7]) was 90%, the Activity (Rattus norvegicus [8]) was 45.6% and the Activity (Rattus norvegicus [9]) was 13.4%. It also gave an Activity (Rattus norvegicus [10]) of 56.4%, an Activity (Mus musculus [11]) of 0% and an LD50 [12] of 750 mg/kg. The inhibition in vivo at 0.5 mg/kg (Rattus norvegicus [13]) was 0%, the inhibition in vivo at 0.5 mg/kg (Rattus norvegicus [14]) was 0.5% and the “inhibition (INH)” value (Rattus norvegicus [15]) was 0%. For the same compound, the minimal effective dose (Canis familiaris) was 1 mg/kg, the inhibition in vivo at 0.05 mg/kg (Rattus norvegicus [16]) was 40% and the Activity (Rattus norvegicus [17]) was 10%. It also gave an inhibition in vivo at 0.1 mg/kg (Rattus norvegicus [18]) of 60%, an Activity (Rattus norvegicus [19]) of 53.1% and an Activity (Rattus norvegicus [20]) of 20.8%. The Activity (Rattus norvegicus [21]) was 27% and the ED50 (Mus musculus [22]) was 4.5 mg/kg.

`CC1CCC2=C(C1)c1c(OC(=O)CCCN3CCCCC3)cc(C(C)CCCc3ccc(F)cc3)cc1OC2(C)C.Cl` (stereo unspecified) showed an Activity (Rattus norvegicus [1]) of 72%, a Time (Felis catus [23]) of 73 min and an Activity (Rattus norvegicus [24]) of 50%. The Activity (Rattus norvegicus [6]) was 75%, the inhibition in vivo at 0.4 mg/kg (Rattus norvegicus [25]) was 70% and the minimal effective dose (Rhesus monkey) was 1 mg/kg. The Activity (Rattus norvegicus [26]) was 25%, the Time (Felis catus [27]) was 50 min and the Activity (Rattus norvegicus [28]) was 38%. For the same compound, the LD50 [12] was no less than 1000 mg/kg, the Activity (Rattus norvegicus [29]) was 19% and the Activity (Rattus norvegicus [30]) was 95%. The minimal effective dose (Canis familiaris) was 0.2 mg/kg, the inhibition in vivo at 0.1 mg/kg (Rattus norvegicus [18]) was 10% and the ED50 (Rattus norvegicus [31]) was 1.46 mg/kg. The inhibition in vivo at 0.8 mg/kg (Rattus norvegicus [32]) was 90%, the Activity (Mus musculus [33]) was 73% and the ED50 (Mus musculus [22]) was 1.76 mg/kg.
